Laboratory results taken from patent publication US9884065B2, “Inhibiting activity of senescent cells using a glucocorticoid” (Buck Institute for Research on Aging, priority 2011, dated 2018).

Tests used:
HCA2 human fibroblasts = conditions: 2.5 μM, 48 hours
Description: The initial drug screen was performed in a 96-well format using automated liquid handling with a Biomek FX (Beckman Coulter, CA). Senescent cells were plated 24 hours after X-irradiation at 7,500 cells per well in 96-well plates. Six days after plating the senescent cells, the pre-senescent cells were plated at 7,500 cells per well in 96-well plates. Twenty-four hours after pre-senescent plating, both pre-senescent and senescent cells were washed and incubated in low (0.2%) serum for 48 hours to arrest cell proliferation of the pre-senescent cells. Drugs from the Prestwick Chemical Library, which contains 1120 bio-available compounds in DMSO, were given to the cells at 2.5 μM in media containing 0.2% serum. Forty-eight hours after compound addition, the medium in each well was removed and frozen for assay by ELISA to quantitate the levels of IL-6. The cells, which remained in the wells after the medium was removed, were lysed and ATP levels were measured (ATPlite 1-step assay, Perkin Elmer, MA) to exclude compounds that lowered IL-6 through toxicity (cell death). Experimental wells in each plate were normalized to plate mean or same-plate DMSO controls for the ELISA and ATP assays, respectively.
To identify small molecules that may be potential SASP modulators, a screening strategy that entailed administering compounds to parallel 96-well plates containing human fibroblasts (strain HCA2) that were either quiescent or senescent was developed. The compounds tested comprised the Prestwick Chemical Library, a collection of approximately 1,120 Federal Drug Administration-approved drugs. The compounds were added to duplicate wells at a single concentration (2.5 μM). After 48 hours, the medium from each well was removed, and the cells were lysed. […] Cell lysates were assayed for ATP as a surrogate for cell number.

IL-6 = IL-6 ELISA of conditioned media from X-irradiated senescent HCA2 fibroblasts; format: cell-based, human; conditions: for IL-6 secretion, varying concentrations: added immediately after irradiation, 6 days
Description: To validate glucocorticoids as SASP regulators, they were added within 15 min after irradiation (unless otherwise indicated). For cells induced to senesce by MKK6 or RAS overexpression, glucocorticoid treatment started 16 hours after infection. Glucocorticoids were re-added in fresh media every other day. Six days after irradiation or selection, cells were given serum-free DMEM with or without glucocorticoid for 24 hours; the conditioned media were collected and frozen for ELISAs.
Conditioned media were filtered and stored at −80° C. Cell numbers were determined in every experiment. ELISAs were performed using kits and procedures from PerkinElmer (IL-6 AL223F). Data were normalized and expressed as pg/ml/cell/24 h.
To confirm the ability of corticosterone to suppress senescence-associated IL-6 secretion, fresh HCA2 fibroblast cultures were prepared, and senescence was induced by X-irradiation (10 Gy). Under these conditions, cells undergo growth arrest within 24-48 hours, but require 4-5 days before SASP components are detected in the medium (Coppe et al., 2008, PLoS Biol. 6:2853-2868; Rodier et al., 2009, Nature Cell Biol. 11:973-979; Coppe et al., 2010, PLoS ONE 5:e9188; Freund et al., 2011, EMBO J. 30:1536-1548). Varying concentrations of corticosterone were added immediately after irradiation, and the cells were maintained in the drug for 6 days. On the 6th day, the cells were incubated in serum-free medium with or without corticosterone, the conditioned medium was collected 24 h later, and the medium was assayed for IL-6 by ELISA. […] The ability of corticosterone to suppress IL-6 secretion by senescent cells was not peculiar to HCA2 cells.

[1] = test system: IL-1α/IL-1 receptor (IL-1R) signaling; test: Western blotting of HCA2 lysates for IRAK1, IκBα, RelA; format: cell-based, human; conditions: senescent cells; 500 nM corticosterone or 100 nM cortisol
Description: Cells were lysed in RIPA buffer. Lysates were sonicated (10 sec), followed by centrifugation. Samples were incubated at 70° C. for 10 min, loaded on 4-15% gradient tris-glycine SDS-polyacrylamide gels (Invitrogen) and separated by electrophoresis. Proteins were transferred to PVDF membranes, blocked in TBST 5% milk for 1 hour at room temperature, and probed overnight at 4° C. with primary antibodies in blocking buffer. Membranes were washed in TBST, and incubated with horseradish peroxidase-conjugated secondary antibodies for 1 hour at room temperature. Blots were developed using Western detection substrate (GE Healthcare).
Primary antibodies and dilutions were: anti-GR (SC-8992, Santa Cruz; 1:500), anti-actin (ab6276, Abcam; 1:50000), anti-MCR (SC-11412, Santa Cruz; 1:500), anti-IRAK1 (SC-5288, Santa Cruz; 1:500), anti-IκBα (#9247, Cell Signaling; 1:500), anti-RelA (SC-109, Santa Cruz; 1:500), and anti-53BP1 (A300-272A, Bethyl; 1:500).

Row | Compound | ATP levels (HCA2 human fibroblasts) | reduction of IL-6 secretion (IL-6; 20 nM corticosterone) | maximal suppression of IL-6 secretion (IL-6; 500 nM corticosterone) [%] | IL-6 secretion, continuous exposure (IL-6; 500 nM, continuous exposure for 7 days after irradiation) | IL-6 secretion, short exposure (IL-6; 500 nM, pretreatment before X-irradiation, or only 24 hours immediately after irradiation or after establishment of the SASP (7 days)) | IL-6 secretion, varying concentrations (IL-6) | IRAK1 and IκBα protein abundance [1] | reduction of senescence-associated IL-6 secretion (IL-6; 100 nM cortisol) [%] | IC50 (IL-6; Homo sapiens, HCA2, sub-nM concentrations, read-out: concentration reducing senescence-associated IL-6 secretion by 50%) [nM]
1 | C[C@]12C[C@H](O)[C@H]3[C@@H](CCC4=CC(=O)CC[C@@]43C)[C@@H]1CC[C@@H]2C(=O)CO [corticosterone] | without altering ATP levels | approximately 50% | > 90 | strongly suppressed IL-6 secretion | had no effect on IL-6 secretion | decreased IL-6 secretion in a dose-dependent manner | restored IRAK1 and IκBα proteins to near-presenescent levels |  | 
2 | C[C@]12CCC(=O)C=C1CC[C@@H]1[C@@H]2[C@@H](O)C[C@@]2(C)[C@H]1CC[C@]2(O)C(=O)CO [cortisol] | without altering ATP levels |  |  |  |  | decreased IL-6 secretion in a dose-dependent manner, and was more potent than corticosterone | restored IRAK1 and IκBα proteins to near-presenescent levels | > 90 | 0.16 to 0.8
